From US11566022B2, “3-(5-methoxy-1-oxoisoindolin-2-yl)piperidine-2,6-dione derivatives and uses thereof” (NOVARTIS AG, priority 2019, dated 2023)

What follows are molecules tested against HiBit-WIZ fusion protein (Homo sapiens, UniProt O95785+Q96SW2) (assay: Quantification of WIZ protein levels in HiBit tag fusion protein assay (WIZ HiBit assay in 293T cells)). Conditions: HEK-293T, 100 minus Amax; 293T cells; read-out: % degradation of WIZ (100-Amax).
Type: cell-based
Design: Dmax: dose or concentration left out as unconfirmed

Sequence of HiBit-WIZ fusion protein (O95785 whole entry, the tested form may be a part): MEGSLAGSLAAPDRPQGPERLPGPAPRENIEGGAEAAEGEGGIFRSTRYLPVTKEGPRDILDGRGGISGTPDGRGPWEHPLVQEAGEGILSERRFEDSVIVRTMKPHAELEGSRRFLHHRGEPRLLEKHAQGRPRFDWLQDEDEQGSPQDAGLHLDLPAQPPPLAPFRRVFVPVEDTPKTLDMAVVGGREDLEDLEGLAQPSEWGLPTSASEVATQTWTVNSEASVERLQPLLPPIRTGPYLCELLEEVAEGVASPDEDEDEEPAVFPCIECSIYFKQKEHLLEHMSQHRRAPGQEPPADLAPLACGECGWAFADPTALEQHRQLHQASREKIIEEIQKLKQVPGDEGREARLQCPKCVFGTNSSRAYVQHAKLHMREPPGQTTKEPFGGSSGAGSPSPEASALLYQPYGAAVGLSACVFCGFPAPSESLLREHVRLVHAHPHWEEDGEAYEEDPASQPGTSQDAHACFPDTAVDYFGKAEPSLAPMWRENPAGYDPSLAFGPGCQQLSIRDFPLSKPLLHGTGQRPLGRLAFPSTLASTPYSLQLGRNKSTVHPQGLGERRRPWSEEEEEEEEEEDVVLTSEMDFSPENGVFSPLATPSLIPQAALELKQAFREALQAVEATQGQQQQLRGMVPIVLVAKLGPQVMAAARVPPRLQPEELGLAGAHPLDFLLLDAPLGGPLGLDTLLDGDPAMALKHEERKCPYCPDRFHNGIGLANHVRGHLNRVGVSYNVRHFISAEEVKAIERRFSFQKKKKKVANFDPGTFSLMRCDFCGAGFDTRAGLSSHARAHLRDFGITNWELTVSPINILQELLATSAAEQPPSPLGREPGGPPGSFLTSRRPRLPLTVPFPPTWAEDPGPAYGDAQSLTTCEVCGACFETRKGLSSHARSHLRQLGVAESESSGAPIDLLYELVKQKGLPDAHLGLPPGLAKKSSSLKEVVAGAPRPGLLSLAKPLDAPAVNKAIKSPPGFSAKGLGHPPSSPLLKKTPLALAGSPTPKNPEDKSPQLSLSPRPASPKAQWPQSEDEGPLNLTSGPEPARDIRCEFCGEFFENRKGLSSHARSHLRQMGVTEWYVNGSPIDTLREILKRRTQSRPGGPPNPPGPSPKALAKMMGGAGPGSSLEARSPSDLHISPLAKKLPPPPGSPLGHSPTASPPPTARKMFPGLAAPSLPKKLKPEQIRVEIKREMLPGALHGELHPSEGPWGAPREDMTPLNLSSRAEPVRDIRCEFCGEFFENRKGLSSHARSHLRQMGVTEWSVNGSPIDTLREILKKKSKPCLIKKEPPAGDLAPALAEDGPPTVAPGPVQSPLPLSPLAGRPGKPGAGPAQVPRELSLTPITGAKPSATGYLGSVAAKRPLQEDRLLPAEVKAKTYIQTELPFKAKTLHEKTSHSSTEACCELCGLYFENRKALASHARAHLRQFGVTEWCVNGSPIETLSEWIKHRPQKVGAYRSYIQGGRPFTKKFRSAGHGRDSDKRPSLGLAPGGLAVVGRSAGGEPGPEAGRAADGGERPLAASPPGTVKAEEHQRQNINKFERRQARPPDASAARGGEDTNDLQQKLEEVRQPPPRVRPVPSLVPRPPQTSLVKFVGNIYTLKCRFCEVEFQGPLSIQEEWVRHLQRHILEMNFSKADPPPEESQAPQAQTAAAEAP
Sequence of HiBit-WIZ fusion protein (Q96SW2 whole entry, the tested form may be a part): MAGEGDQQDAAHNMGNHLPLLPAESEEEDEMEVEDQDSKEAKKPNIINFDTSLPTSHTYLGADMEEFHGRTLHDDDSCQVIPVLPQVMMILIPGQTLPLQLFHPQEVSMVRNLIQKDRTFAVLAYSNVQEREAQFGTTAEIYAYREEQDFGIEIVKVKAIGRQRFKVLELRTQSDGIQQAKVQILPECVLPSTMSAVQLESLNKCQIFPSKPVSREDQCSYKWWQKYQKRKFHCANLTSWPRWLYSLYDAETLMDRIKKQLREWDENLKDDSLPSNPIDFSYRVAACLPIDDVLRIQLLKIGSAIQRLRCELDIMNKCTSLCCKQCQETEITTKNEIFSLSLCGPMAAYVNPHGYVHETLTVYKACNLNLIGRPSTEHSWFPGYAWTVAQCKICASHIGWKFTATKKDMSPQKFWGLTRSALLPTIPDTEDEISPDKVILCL
Sequence of HiBit-WIZ fusion protein (Q16531 whole entry partner, the tested form may be a part): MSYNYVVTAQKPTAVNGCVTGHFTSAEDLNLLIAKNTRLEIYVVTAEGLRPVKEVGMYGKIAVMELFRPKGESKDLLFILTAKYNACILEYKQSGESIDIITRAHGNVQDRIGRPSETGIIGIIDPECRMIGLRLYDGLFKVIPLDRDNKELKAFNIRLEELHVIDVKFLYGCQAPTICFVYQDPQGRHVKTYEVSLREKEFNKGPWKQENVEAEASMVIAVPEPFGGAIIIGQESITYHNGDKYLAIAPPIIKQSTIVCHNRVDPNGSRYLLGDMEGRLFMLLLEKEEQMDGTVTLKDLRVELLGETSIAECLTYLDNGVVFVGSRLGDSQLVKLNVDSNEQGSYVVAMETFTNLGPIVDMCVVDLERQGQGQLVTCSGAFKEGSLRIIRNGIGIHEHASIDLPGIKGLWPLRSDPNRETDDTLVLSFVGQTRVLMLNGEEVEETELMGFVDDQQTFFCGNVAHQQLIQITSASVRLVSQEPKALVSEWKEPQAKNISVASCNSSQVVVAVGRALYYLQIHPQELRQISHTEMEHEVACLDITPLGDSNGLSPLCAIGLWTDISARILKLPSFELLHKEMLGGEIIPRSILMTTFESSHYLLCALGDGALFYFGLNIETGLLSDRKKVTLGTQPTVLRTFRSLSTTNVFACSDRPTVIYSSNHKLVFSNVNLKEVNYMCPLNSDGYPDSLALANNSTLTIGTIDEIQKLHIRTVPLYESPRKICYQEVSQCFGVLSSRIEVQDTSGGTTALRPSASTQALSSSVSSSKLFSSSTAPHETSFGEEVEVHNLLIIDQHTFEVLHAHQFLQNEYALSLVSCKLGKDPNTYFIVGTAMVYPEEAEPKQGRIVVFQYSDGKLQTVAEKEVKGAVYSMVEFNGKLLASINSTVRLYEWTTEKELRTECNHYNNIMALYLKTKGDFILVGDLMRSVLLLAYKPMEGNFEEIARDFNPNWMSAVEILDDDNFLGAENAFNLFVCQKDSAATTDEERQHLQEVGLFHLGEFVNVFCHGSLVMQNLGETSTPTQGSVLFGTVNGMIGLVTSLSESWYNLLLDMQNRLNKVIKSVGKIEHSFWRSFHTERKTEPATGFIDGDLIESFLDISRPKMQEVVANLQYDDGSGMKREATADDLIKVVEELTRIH

Row | SMILES | Dmax [%]
1 | O=C1CCC(N2Cc3cc(OC[C@@H]4CCCCN4C(=O)[C@@H]4CCCCN4C4CC4)ccc3C2=O)C(=O)N1 (stereo partly drawn) [Compound I-72f] | 0.9
2 | Cc1ccnc(-c2cc(C(=O)N3CCCC[C@H]3COc3ccc4c(c3)CN(C3CCC(=O)NC3=O)C4=O)ccn2)c1 (stereo partly drawn) [Compound I-72fa] | 5.1
3 | CC(C)N1CCC(CC(=O)N2CCCC[C@H]2COc2ccc3c(c2)CN(C2CCC(=O)NC2=O)C3=O)CC1 (stereo partly drawn) [Compound I-72fe] | 18.5
4 | O=C1CCC(N2Cc3cc(OC[C@@H]4CCCCN4C(=O)c4cnc(N5CCCCC5)s4)ccc3C2=O)C(=O)N1 (stereo partly drawn) [Compound I-72fi] | 70.2
5 | O=C1CCC(N2Cc3cc(OC[C@@H]4CCCCN4C(=O)c4ccc(-c5ccc(F)cc5)cn4)ccc3C2=O)C(=O)N1 (stereo partly drawn) [Compound I-72fj] | 63.7
6 | O=C1CCC(N2Cc3cc(OC[C@@H]4CCCCN4C(=O)[C@H]4CCOC4)ccc3C2=O)C(=O)N1 (stereo partly drawn) [Compound I-72fn] | 2.6
7 | Cc1nc(C(=O)N2CCCC[C@H]2COc2ccc3c(c2)CN(C2CCC(=O)NC2=O)C3=O)c(C)s1 (stereo partly drawn) [Compound I-72fp] | 9.5
8 | O=C1CCC(N2Cc3cc(OC[C@@H]4CCCCN4C(=O)c4snnc4-c4ccccc4)ccc3C2=O)C(=O)N1 (stereo partly drawn) [Compound I-72fq] | 0.3
9 | O=C1CCC(N2Cc3cc(OC[C@@H]4CCCCN4C(=O)CCCn4cnnc4)ccc3C2=O)C(=O)N1 (stereo partly drawn) [Compound I-72fv] | 1.1
10 | COc1ccc(C(C)(C)C(=O)N2CCCC[C@H]2COc2ccc3c(c2)CN(C2CCC(=O)NC2=O)C3=O)cc1 (stereo partly drawn) [Compound I-72fz] | 9.1
11 | O=C1CCC(N2Cc3cc(OC[C@@H]4CCCCN4C(=O)c4cccnc4N4CCCC4)ccc3C2=O)C(=O)N1 (stereo partly drawn) [Compound I-72gb] | 23.9
12 | CC1(c2ccc(C(=O)N3CCCC[C@H]3COc3ccc4c(c3)CN(C3CCC(=O)NC3=O)C4=O)cc2)COC1 (stereo partly drawn) [Compound I-72gc] | 58.3
13 | CC(C)c1cc(C(=O)N2CCCC[C@H]2COc2ccc3c(c2)CN(C2CCC(=O)NC2=O)C3=O)n(C)n1 (stereo partly drawn) [Compound I-72gd] | 80.1
14 | CN(C)c1cccc(C(=O)N2CCCC[C@H]2COc2ccc3c(c2)CN(C2CCC(=O)NC2=O)C3=O)c1 (stereo partly drawn) [Compound I-72gg] | 24
15 | N#Cc1ccc(CCC(=O)N2CCCC[C@H]2COc2ccc3c(c2)CN(C2CCC(=O)NC2=O)C3=O)cc1 (stereo partly drawn) [Compound I-72gh] | 10.9
16 | CC(C)c1ccccc1C(=O)N1CCCC[C@H]1COc1ccc2c(c1)CN(C1CCC(=O)NC1=O)C2=O (stereo partly drawn) [Compound I-72gi] | 14.9
17 | O=C1CCC(N2Cc3cc(OC[C@@H]4CCCCN4C(=O)C4CCCOC4)ccc3C2=O)C(=O)N1 (stereo partly drawn) [Compound I-72gj] | 2.3
18 | O=C1CCC(N2Cc3cc(OC[C@@H]4CCCCN4C(=O)CCc4c[nH]cn4)ccc3C2=O)C(=O)N1 (stereo partly drawn) [Compound I-72gk] | 6.5
19 | COc1ccc(C(=O)N2CCCC[C@H]2COc2ccc3c(c2)CN(C2CCC(=O)NC2=O)C3=O)nn1 (stereo partly drawn) [Compound I-72gm] | 6.8
20 | COc1cc(C(=O)N2CCCC[C@H]2COc2ccc3c(c2)CN(C2CCC(=O)NC2=O)C3=O)c(F)cn1 (stereo partly drawn) [Compound I-72gn] | 26.4
21 | Cc1onc(-c2ccccc2)c1CC(=O)N1CCCC[C@H]1COc1ccc2c(c1)CN(C1CCC(=O)NC1=O)C2=O (stereo partly drawn) [Compound I-72gp] | 14.4
22 | Cc1nn(-c2ccccc2)c(C)c1C(=O)N1CCCC[C@H]1COc1ccc2c(c1)CN(C1CCC(=O)NC1=O)C2=O (stereo partly drawn) [Compound I-72gs] | 57.9
23 | C[C@H](CC(=O)N1CCCC[C@H]1COc1ccc2c(c1)CN(C1CCC(=O)NC1=O)C2=O)c1ccccc1 (stereo partly drawn) [Compound I-72gu] | 0.2

Same assay, conditions: HEK-293T, DMSO-normalized, curve-fitted percentage of WIZ-HiBit remaining at 25 uM; 293T cells; read-out: WIZ Amax

Row | SMILES | remaining activity at up to 25 µM [%]
24 | O=C1CCC(N2Cc3cc(OC[C@@H]4CCCCN4C(=O)[C@@H]4CCCCN4C4CC4)ccc3C2=O)C(=O)N1 (stereo partly drawn) [Compound I-72f] | 99.1
25 | Cc1ccnc(-c2cc(C(=O)N3CCCC[C@H]3COc3ccc4c(c3)CN(C3CCC(=O)NC3=O)C4=O)ccn2)c1 (stereo partly drawn) [Compound I-72fa] | 94.9
26 | CC(C)N1CCC(CC(=O)N2CCCC[C@H]2COc2ccc3c(c2)CN(C2CCC(=O)NC2=O)C3=O)CC1 (stereo partly drawn) [Compound I-72fe] | 81.5
27 | O=C1CCC(N2Cc3cc(OC[C@@H]4CCCCN4C(=O)c4cnc(N5CCCCC5)s4)ccc3C2=O)C(=O)N1 (stereo partly drawn) [Compound I-72fi] | 29.8
28 | O=C1CCC(N2Cc3cc(OC[C@@H]4CCCCN4C(=O)c4ccc(-c5ccc(F)cc5)cn4)ccc3C2=O)C(=O)N1 (stereo partly drawn) [Compound I-72fj] | 36.3
29 | O=C1CCC(N2Cc3cc(OC[C@@H]4CCCCN4C(=O)[C@H]4CCOC4)ccc3C2=O)C(=O)N1 (stereo partly drawn) [Compound I-72fn] | 97.4
30 | Cc1nc(C(=O)N2CCCC[C@H]2COc2ccc3c(c2)CN(C2CCC(=O)NC2=O)C3=O)c(C)s1 (stereo partly drawn) [Compound I-72fp] | 90.5
31 | O=C1CCC(N2Cc3cc(OC[C@@H]4CCCCN4C(=O)c4snnc4-c4ccccc4)ccc3C2=O)C(=O)N1 (stereo partly drawn) [Compound I-72fq] | 99.7
32 | O=C1CCC(N2Cc3cc(OC[C@@H]4CCCCN4C(=O)CCCn4cnnc4)ccc3C2=O)C(=O)N1 (stereo partly drawn) [Compound I-72fv] | 98.9
33 | COc1ccc(C(C)(C)C(=O)N2CCCC[C@H]2COc2ccc3c(c2)CN(C2CCC(=O)NC2=O)C3=O)cc1 (stereo partly drawn) [Compound I-72fz] | 90.9
34 | O=C1CCC(N2Cc3cc(OC[C@@H]4CCCCN4C(=O)c4cccnc4N4CCCC4)ccc3C2=O)C(=O)N1 (stereo partly drawn) [Compound I-72gb] | 76.1
35 | CC1(c2ccc(C(=O)N3CCCC[C@H]3COc3ccc4c(c3)CN(C3CCC(=O)NC3=O)C4=O)cc2)COC1 (stereo partly drawn) [Compound I-72gc] | 41.7
36 | CC(C)c1cc(C(=O)N2CCCC[C@H]2COc2ccc3c(c2)CN(C2CCC(=O)NC2=O)C3=O)n(C)n1 (stereo partly drawn) [Compound I-72gd] | 19.9
37 | CN(C)c1cccc(C(=O)N2CCCC[C@H]2COc2ccc3c(c2)CN(C2CCC(=O)NC2=O)C3=O)c1 (stereo partly drawn) [Compound I-72gg] | 76
38 | N#Cc1ccc(CCC(=O)N2CCCC[C@H]2COc2ccc3c(c2)CN(C2CCC(=O)NC2=O)C3=O)cc1 (stereo partly drawn) [Compound I-72gh] | 89.1
39 | CC(C)c1ccccc1C(=O)N1CCCC[C@H]1COc1ccc2c(c1)CN(C1CCC(=O)NC1=O)C2=O (stereo partly drawn) [Compound I-72gi] | 85.1
40 | O=C1CCC(N2Cc3cc(OC[C@@H]4CCCCN4C(=O)C4CCCOC4)ccc3C2=O)C(=O)N1 (stereo partly drawn) [Compound I-72gj] | 97.7
41 | O=C1CCC(N2Cc3cc(OC[C@@H]4CCCCN4C(=O)CCc4c[nH]cn4)ccc3C2=O)C(=O)N1 (stereo partly drawn) [Compound I-72gk] | 93.5
42 | COc1ccc(C(=O)N2CCCC[C@H]2COc2ccc3c(c2)CN(C2CCC(=O)NC2=O)C3=O)nn1 (stereo partly drawn) [Compound I-72gm] | 93.2
43 | COc1cc(C(=O)N2CCCC[C@H]2COc2ccc3c(c2)CN(C2CCC(=O)NC2=O)C3=O)c(F)cn1 (stereo partly drawn) [Compound I-72gn] | 73.6
44 | Cc1onc(-c2ccccc2)c1CC(=O)N1CCCC[C@H]1COc1ccc2c(c1)CN(C1CCC(=O)NC1=O)C2=O (stereo partly drawn) [Compound I-72gp] | 85.6
45 | Cc1nn(-c2ccccc2)c(C)c1C(=O)N1CCCC[C@H]1COc1ccc2c(c1)CN(C1CCC(=O)NC1=O)C2=O (stereo partly drawn) [Compound I-72gs] | 42.1
46 | C[C@H](CC(=O)N1CCCC[C@H]1COc1ccc2c(c1)CN(C1CCC(=O)NC1=O)C2=O)c1ccccc1 (stereo partly drawn) [Compound I-72gu] | 99.8

Same assay, conditions: WIZ HiBit assay in 293T cells; 10-point, 5-fold dose response, highest concentration 25 μM, about 18 hours; read-out: WIZ AC50

Row | SMILES | DC50 [µM]
47 | O=C1CCC(N2Cc3cc(OC[C@@H]4CCCCN4C(=O)[C@@H]4CCCCN4C4CC4)ccc3C2=O)C(=O)N1 (stereo partly drawn) [Compound I-72f] | > 25
48 | Cc1ccnc(-c2cc(C(=O)N3CCCC[C@H]3COc3ccc4c(c3)CN(C3CCC(=O)NC3=O)C4=O)ccn2)c1 (stereo partly drawn) [Compound I-72fa] | > 25
49 | CC(C)N1CCC(CC(=O)N2CCCC[C@H]2COc2ccc3c(c2)CN(C2CCC(=O)NC2=O)C3=O)CC1 (stereo partly drawn) [Compound I-72fe] | > 25
50 | O=C1CCC(N2Cc3cc(OC[C@@H]4CCCCN4C(=O)c4cnc(N5CCCCC5)s4)ccc3C2=O)C(=O)N1 (stereo partly drawn) [Compound I-72fi] | 2.05
51 | O=C1CCC(N2Cc3cc(OC[C@@H]4CCCCN4C(=O)c4ccc(-c5ccc(F)cc5)cn4)ccc3C2=O)C(=O)N1 (stereo partly drawn) [Compound I-72fj] | 3.91
52 | O=C1CCC(N2Cc3cc(OC[C@@H]4CCCCN4C(=O)[C@H]4CCOC4)ccc3C2=O)C(=O)N1 (stereo partly drawn) [Compound I-72fn] | > 25
53 | Cc1nc(C(=O)N2CCCC[C@H]2COc2ccc3c(c2)CN(C2CCC(=O)NC2=O)C3=O)c(C)s1 (stereo partly drawn) [Compound I-72fp] | > 25
54 | O=C1CCC(N2Cc3cc(OC[C@@H]4CCCCN4C(=O)c4snnc4-c4ccccc4)ccc3C2=O)C(=O)N1 (stereo partly drawn) [Compound I-72fq] | > 25
55 | O=C1CCC(N2Cc3cc(OC[C@@H]4CCCCN4C(=O)CCCn4cnnc4)ccc3C2=O)C(=O)N1 (stereo partly drawn) [Compound I-72fv] | > 25
56 | COc1ccc(C(C)(C)C(=O)N2CCCC[C@H]2COc2ccc3c(c2)CN(C2CCC(=O)NC2=O)C3=O)cc1 (stereo partly drawn) [Compound I-72fz] | > 25
57 | O=C1CCC(N2Cc3cc(OC[C@@H]4CCCCN4C(=O)c4cccnc4N4CCCC4)ccc3C2=O)C(=O)N1 (stereo partly drawn) [Compound I-72gb] | > 25
58 | CC1(c2ccc(C(=O)N3CCCC[C@H]3COc3ccc4c(c3)CN(C3CCC(=O)NC3=O)C4=O)cc2)COC1 (stereo partly drawn) [Compound I-72gc] | 10.1
59 | CC(C)c1cc(C(=O)N2CCCC[C@H]2COc2ccc3c(c2)CN(C2CCC(=O)NC2=O)C3=O)n(C)n1 (stereo partly drawn) [Compound I-72gd] | 0.919
60 | CN(C)c1cccc(C(=O)N2CCCC[C@H]2COc2ccc3c(c2)CN(C2CCC(=O)NC2=O)C3=O)c1 (stereo partly drawn) [Compound I-72gg] | > 25
61 | N#Cc1ccc(CCC(=O)N2CCCC[C@H]2COc2ccc3c(c2)CN(C2CCC(=O)NC2=O)C3=O)cc1 (stereo partly drawn) [Compound I-72gh] | > 25
62 | CC(C)c1ccccc1C(=O)N1CCCC[C@H]1COc1ccc2c(c1)CN(C1CCC(=O)NC1=O)C2=O (stereo partly drawn) [Compound I-72gi] | > 25
63 | O=C1CCC(N2Cc3cc(OC[C@@H]4CCCCN4C(=O)C4CCCOC4)ccc3C2=O)C(=O)N1 (stereo partly drawn) [Compound I-72gj] | > 25
64 | O=C1CCC(N2Cc3cc(OC[C@@H]4CCCCN4C(=O)CCc4c[nH]cn4)ccc3C2=O)C(=O)N1 (stereo partly drawn) [Compound I-72gk] | > 25
65 | COc1ccc(C(=O)N2CCCC[C@H]2COc2ccc3c(c2)CN(C2CCC(=O)NC2=O)C3=O)nn1 (stereo partly drawn) [Compound I-72gm] | > 25
66 | COc1cc(C(=O)N2CCCC[C@H]2COc2ccc3c(c2)CN(C2CCC(=O)NC2=O)C3=O)c(F)cn1 (stereo partly drawn) [Compound I-72gn] | > 25
67 | Cc1onc(-c2ccccc2)c1CC(=O)N1CCCC[C@H]1COc1ccc2c(c1)CN(C1CCC(=O)NC1=O)C2=O (stereo partly drawn) [Compound I-72gp] | > 25
68 | Cc1nn(-c2ccccc2)c(C)c1C(=O)N1CCCC[C@H]1COc1ccc2c(c1)CN(C1CCC(=O)NC1=O)C2=O (stereo partly drawn) [Compound I-72gs] | 7.39
69 | C[C@H](CC(=O)N1CCCC[C@H]1COc1ccc2c(c1)CN(C1CCC(=O)NC1=O)C2=O)c1ccccc1 (stereo partly drawn) [Compound I-72gu] | > 25
